Test [1] relates to Wnt activity (Sp5-Luc reporter, SW480 colon carcinoma cells). Briefly: Wnt activity screening assay, Sp5-Luc reporter gene in SW480 cells. The class given is cell-based. The settings on record: Homo sapiens; for inhibition at 10 µM: given for EC50 >10 μM, read-out: percent inhibition at 10 μM; for pEC50: overnight incubation. A digest of the protocol:
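SW480 colon carcinoma cells stably expressing firefly luciferase under a human Sp5 promoter (eight TCF/LEF sites), plated in 1% FBS medium. 10-point 1:3 dilutions from 10 μM, 0.1% DMSO final, overnight at 37 °C; luminescence normalized to DMSO, four-parameter fit for EC50, % inhibition at 10 μM if EC50 >10 μM.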
A general note: In a reporter assay the amount or activity of a reporter protein is the signal.

Test [2] has as its system primary human mesenchymal stem cells (hMSCs). The test is described as follows: Chondrogenesis induction in hMSCs (nodule count, Rhodamine B/Nile Red). The class given is cell-based. The settings on record: 144 h, 6 days; for EC50: concentration required to induce 50% levels of chondrogenesis vs TGF-β3, read-out: Conc (nM) of 50% TGF-β3 activity; for Emax: relative to TGF-β3 (10 ng/mL) positive control, read-out: Max. Activity as % TGF-β3 activity. As to the method: Representative compounds were screened using primary human mesenchymal stem cells (hMSCs) to determine their ability to induce chondrogenesis (process by which cartilage is developed).
Primary human mesenchymal stem cells (hMSCs) were purchased from Lonza (Walkersville, Md.) and expanded in Mesenchymal Stem Cell Growth Media (Lonza). Cells between passage 3 and 6 were used for the experiments.
Each compound was dissolved in DMSO as a 10 mM stock and used to prepare compound source plates. Serial dilution (1:3, 6-point dose-response curves from 2700 nM to 10 nM) and compound transfer was performed using the ECHO 550 (Labcyte, Sunnyvale, Calif.) into 96-well clear bottom assay plates (Greiner Bio-One) with appropriate DMSO backfill for a final DMSO concentration of 0.03%. hMSCs were plated at 20,000 cells/well in 250 μL/well Incomplete Chondrogenic Induction Medium (Lonza; DMEM, dexamethasone, ascorbate, insulin-transferrin-selenium [ITS supplement], gentamycin-amphotericin [GA-1000], sodium pyruvate, proline and L-glutamine). TGF-β3 (10 ng/mL) was used as a positive control for differentiation while negative control wells were treated with 75 nL DMSO for normalization and calculating EC50 values. Cells were incubated at 37° C. and 5% CO2 for 6 days. To image chondrogenic nodules, the cells were fixed using 4% formaldehyde (Electron Microscopy Sciences), and stained with 2 μg/mL Rhodamine B (Sigma-Aldrich) and 20 μM Nile Red (Sigma-Aldrich) [Johnson K., et. al, A Stem Cell-Based Approach to Cartilage Repair, Science, (2012), 336(6082), 717-721]. The nodules imaged (4 images per well at 4× magnification) by excitation at 531 nm and emission at 625 nm and quantified using the CellInsight CX5 (Thermo Scientific). Number of nodules in each well was normalized to the average of 3 DMSO treated wells on the same plate using Excel (Microsoft Inc.). The normalized averages (fold change over DMSO) of 3 replicate wells for each compound concentration were calculated. Due to solubility limitations of some of the compounds, curve fitting was incomplete leading to inaccurate EC50 determinations.
Using TGF-β3 as a positive control, the concentration of representative compounds required to induce 50% levels of chondrogenesis is reported. In addition, the maximum activity of each compound and the respective dose that each compound reached maximum chondrogenesis activity is reported.

pEC50: −log10 of the molar value.

What is called inhibition is the change of the read-out against control, counted positive when it falls. The term pEC50 denotes the negative decadic logarithm of the EC50, by convention in mol/L. Consider `CC(C)(C)CC(=O)Nc1cncc(-c2cnc3[nH]nc(-c4cc5c(-c6ccncc6)ccnc5[nH]4)c3c2)c1` [Compound 128, 3,3-Dimethyl-N-(5-(3-(4-(pyridin-4-yl)-1H-pyrrolo[2,3-b]pyridin-2-yl)-1H-pyrazolo[3,4-b]pyridin-5-yl)pyridin-3-yl)butanamide], for which, in test [1], the inhibition at 10 µM was found to be 0% and the pEC50 is less than 5.00. In test [2], the EC50 came to 300 nM and the Emax is 79%.
In the case of `CCCC(=O)Nc1cncc(-c2cnc3[nH]nc(-c4cc5c(-c6ccncc6)ccnc5[nH]4)c3c2)c1` [Compound 129, N-(5-(3-(4-(Pyridin-4-yl)-1H-pyrrolo[2,3-b]pyridin-2-yl)-1H-pyrazolo[3,4-b]pyridin-5-yl)pyridin-3-yl)butyramide], in test [1], the inhibition at 10 µM was determined as 35% and the pEC50 is less than 5.00. In test [2], the EC50 turned out to be 30 nM and the Emax worked out at 50%.
For `c1ccc(CNCc2cncc(-c3cnc4[nH]nc(-c5cc6c(-c7ccncc7)ccnc6[nH]5)c4c3)c2)cc1` [Compound 136, N-Benzyl-1-(5-(3-(4-(pyridin-4-yl)-1H-pyrrolo[2,3-b]pyridin-2-yl)-1H-pyrazolo[3,4-b]pyridin-5-yl)pyridin-3-yl)methanamine], in test [1], the inhibition at 10 µM worked out at 0% and the pEC50 was less than 5.00. Besides, in test [2], the EC50 came to 2700 nM and the Emax was determined as 93%.
With `CCC(=O)Nc1cncc(-c2cnc3[nH]nc(-c4cc5c(N6CCCCC6)ccnc5[nH]4)c3c2)c1` [Compound 169, N-(5-(3-(4-(Piperidin-1-yl)-1H-pyrrolo[2,3-b]pyridin-2-yl)-1H-pyrazolo[3,4-b]pyridin-5-yl)pyridin-3-yl)propionamide], the pEC50 in test [1] is 6.06. Moreover, in test [2], the EC50 is 900 nM and the Emax came to 183%.
`CN(C)Cc1cncc(-c2cnc3[nH]nc(-c4cc5c(N6CCCCC6)ccnc5[nH]4)c3c2)c1` [Compound 181, N,N-Dimethyl-1-(5-(3-(4-(piperidin-1-yl)-1H-pyrrolo[2,3-b]pyridin-2-yl)-1H-pyrazolo[3,4-b]pyridin-5-yl)pyridin-3-yl)methanamine]: in test [1], the inhibition at 10 µM is 38.8% and the pEC50 was less than 5.00. Besides, the Emax in test [2] turned out to be 46%.
On to `c1cncc(-c2cnc3[nH]nc(-c4cc5cccnc5[nH]4)c3c2)c1` [Compound 256, 5-(Pyridin-3-yl)-3-(1H-pyrrolo[2,3-b]pyridin-2-yl)-1H-pyrazolo[3,4-b]pyridine], for which, in test [1], the pEC50 is 5.97. In addition, the Emax in test [2] was found to be 11%.
With `O=C(Nc1cncc(-c2cnc3[nH]nc(-c4cc5cccnc5[nH]4)c3c2)c1)c1ccccc1` [Compound 263, N-(5-(3-(1H-Pyrrolo[2,3-b]pyridin-2-yl)-1H-pyrazolo[3,4-b]pyridin-5-yl)pyridin-3-yl)benzamide], in test [1], the inhibition at 10 µM was determined as 29.7% and the pEC50 is less than 5.00. Also, the Emax in test [2] was found to be 22%.
As to `CC(C)(C)CC(=O)Nc1cncc(-c2cnc3[nH]nc(-c4cc5cccnc5[nH]4)c3c2)c1` [Compound 268, N-(5-(3-(1H-Pyrrolo[2,3-b]pyridin-2-yl)-1H-pyrazolo[3,4-b]pyridin-5-yl)pyridin-3-yl)-3,3-dimethylbutanamide], the pEC50 in test [1] is 6.07. The Emax in test [2] amounted to 23%.
With `CCCCC(=O)Nc1cncc(-c2cnc3[nH]nc(-c4cc5cccnc5[nH]4)c3c2)c1` [Compound 271, N-(5-(3-(1H-Pyrrolo[2,3-b]pyridin-2-yl)-1H-pyrazolo[3,4-b]pyridin-5-yl)pyridin-3-yl)pentanamide], in test [1], the inhibition at 10 µM stood at 6.5% and the negative logarithm of the EC50 (pEC50) was less than 5.00. Moreover, in test [2], the EC50 worked out at 900 nM and the Emax came out at 260%.
Take `O=C(Nc1cncc(-c2cnc3[nH]nc(-c4cc5cccnc5[nH]4)c3c2)c1)C1CCCCC1` [Compound 275, N-(5-(3-(1H-Pyrrolo[2,3-b]pyridin-2-yl)-1H-pyrazolo[3,4-b]pyridin-5-yl)pyridin-3-yl)cyclohexanecarboxamide]: the pEC50 in test [1] was 5.90. The Emax in test [2] stood at 28%.
As to `O=C(CC1CCNCC1)Nc1cncc(-c2cnc3[nH]nc(-c4cc5c(-c6ccncc6)ccnc5[nH]4)c3c2)c1` [Compound 577], in test [1], the inhibition at 10 µM stood at 12.5% and the pEC50 is less than 5.00. The Emax in test [2] is 27%.
`CN1CCN(c2ccnc3[nH]c(-c4n[nH]c5ncc(-c6cn[nH]c6)cc45)cc23)CC1` [Compound 635, 3-(4-(4-Methylpiperazin-1-yl)-1H-pyrrolo[2,3-b]pyridin-2-yl)-5-(1H-pyrazol-4-yl)-1H-pyrazolo[3,4-b]pyridine]: in test [1], the inhibition at 10 µM came to 5.8% and the negative-log EC50 (pEC50) is less than 5.00. In addition, the Emax in test [2] is 20%.
Take `Cn1cc(-c2cnc3[nH]nc(-c4cc5cccnc5[nH]4)c3c2)cn1` [Compound 652, 5-(1-Methyl-1H-pyrazol-4-yl)-3-(1H-pyrrolo[2,3-b]pyridin-2-yl)-1H-pyrazolo[3,4-b]pyridine]: in test [1], the inhibition at 10 µM is 23.4% and the pEC50 was less than 5.00. Also, in test [2], the EC50 was determined as 300 nM and the Emax was found to be 52%.
